What was measured:
Type in all cases: cell-based
[1] = test system: phosphorylation of AKT at serine 473 in mouse primary B cells; test: p-AKT (S473) western blot in αIgM + IL-4 stimulated mouse B cells
Experimental: (§1) IPI-3063 is a p110δ selective compound with an IC50 = 0.1 nM in p110δ-specific cell-based assays and cellular IC50 values for the other class I PI3K isoforms are at least 1,000-fold higher (Table 2) ([11]). […] To test the effects of p110γ inhibition, we used AS-252424 compound with a biochemical IC50 = 30 nM for p110γ ([17]). We assessed the effects of both IPI-3063 and IPI-443 on PI3K activity in mouse primary B cells stimulated with αIgM + IL-4, by evaluating phosphorylation of AKT at the serine 473 residue (Figures 1A,C) as well as the phosphorylation of ERK1/2 on Thr202/Tyr204 residues (Figures 1B,C). Cells were treated with a pan-PI3K inhibitor GDC-0941 or with various concentrations of IPI-3063 or IPI-443, or DMSO (0.1%) as the diluent control. Separate cultures were treated with the p110γ inhibitor AS-252424 or its diluent control (0.1% EtOH). MK-2206, an AKT inhibitor, which also reduces AKT S473 phosphorylation, was also used as a control to show ERK1/2 phosphorylation is independent of AKT activity. […]
(§2) Analysis was performed on western blots using ImageJ to measure mean fluorescence intensities of each band. Phospho-AKT S473 and phospho-ERK1/2 signal was normalized with actin measurements and fold change was calculated using the stimulated/no drug control.

[2] = test system: phosphorylation of ERK1/2 on Thr202/Tyr204 in mouse primary B cells; test: p-ERK1/2 western blot in αIgM + IL-4 stimulated mouse B cells
Experimental: as §1, §2

mouse B cells = test: mouse B cell survival (B220+7AAD- viability, 48 h)
Experimental: To assess survival, purified mouse B cells were incubated for 48 h in either B-cell activating factor (BAFF) or interleukin-4 (IL-4) with various concentrations of IPI-3063 and IPI-443. […] The selective PI3K inhibitor IPI-3063 was very potent, achieving a significant decrease in B cell survival when present at 10 nM.
Total splenocytes were pretreated with inhibitors as indicated, then cultured with 10 ng/mL IL-4 (A) or 60 ng/mL of BAFF (B) for 48 h. Concentrations used were 1 nM, 10 nM, 100 nM, 1 µM for IPI-443 and 1, 10, 30, 100 nM for IPI-3063. AS252424 concentrations were 100 nM, 300 nM, and 1 µM, and GDC-0941 was at 500 nM. % viability was calculated by measuring % of B220^+7AAD^− cells. Samples were collected by time. (*P < 0.05, **P < 0.001, ***P < 0.0001 one-way ANOVA with Newman–Keuls multiple comparison test).

human B cells = test: human B cell proliferation (CFSE); details: CD40L + anti-human IgM/IgG + hIL-2 + hIL-21, 120 h
Experimental: We also tested the effects of these inhibitors on human B cell proliferation stimulated with human CD40L + anti-human IgM/IgG + hIL-2 + hIL-21. We stimulated CFSE-stained human B cells for 120 h in the presence of GDC-0941, IPI-3063, IPI-443, or AS-252424 at various concentrations. […] IPI-443 caused a dose-dependent decrease in proliferation, whereas AS-252424 had no effect.
(A–C) Purified human B cells were pretreated with inhibitors for 30 min, then stimulated with human CD40L + anti-human IgM/IgG + human IL-2 + human IL-21 for 120 h. Concentrations used were 1 nM, 10 nM, 100 nM, and 1 µM for IPI-443, and 0.1, 1, 10, and 100 nM for IPI-3063. AS252424 concentrations were 100 nM, 300 nM, and 1 µM, and GDC-0941 was at 500 nM. Total numbers and percent divided were determined by the number of CD19^+7AAD^−CFSE^lo cells. Samples were collected by time (*P < 0.05, **P < 0.001, ***P < 0.0001 one-way ANOVA with Newman–Keuls multiple comparison test).
Peripheral blood from normal volunteers was obtained through an Institutional Review Board-approved protocol. Peripheral blood mononuclear cells (PBMCs) were first purified from blood by density gradient centrifugation using Ficoll-Paque. […] B-cell purity was increased from 4% to >70% as measured by FACS analysis (FACSCalibur and CellQuest software; BD Biosciences) using anti-CD19 PE conjugated antibody (eBioscience). […]

Structure (SMILES) | effect on p-AKT signaling ([1]; αIgM + IL-4, 100 nM, 300 nM, 1 µM) | effect on p-ERK1/2 ([2]; αIgM + IL-4) | effect on survival (mouse B cells; BAFF or IL-4, 48 h) | effect on proliferation (human B cells) | concentration with significant reduction of p-AKT ([1]; αIgM + IL-4, 30 min pretreatment, 1 h stimulation) [nM] | concentration with significant reduction of p-ERK1/2 ([2]; αIgM + IL-4, 1 h stimulation) [nM] | concentration with significant decrease in B cell survival (mouse B cells; BAFF, 48 h) [nM] | concentration that significantly reduces proliferation (human B cells) [nM]
O=C1NC(=O)/C(=C/c2ccc(-c3ccc(F)cc3O)o2)S1 [AS-252424, reference compound] | no significant effect | no significant effect | no significant effect | no effect |  |  |  | 
CC(C)n1c([C@H](C)Nc2ncnc(N)c2C#N)cc2cccc(-c3ccc(=O)n(C)c3)c2c1=O [IPI-3063] |  |  |  |  | 1 | 10 | 10 | ≥ 1
